We go through four molecules from ChEMBL document CHEMBL4308846, “How Selective Are Pharmacological Inhibitors of Cell-Cycle-Regulating Cyclin-Dependent Kinases?” (J Med Chem, 2018).

Usually IC50 stands for the concentration at which inhibition is half-maximal. The low end stands for inhibition by little substance, the high end for a need for much substance. What is called inhibition is the percentage by which the read-out fell short of the control.

The source made the active and inactive calls. No cut-off for these calls is given here.

Test [1] has as its system HCT-116. Nature of the test: Induction of cell cycle arrest in human HCT116 cells assessed as accumulation at 8N stage at 1.25 to 5 uM after 24 hrs by propidium iodide-staining based flow cytometry. Format: functional. (In general: Flow cytometry measures light scatter and fluorescence of single cells or particles in a stream.)
Test [2] concerns HCT-116. Nature of the test: Induction of cell cycle arrest in human HCT116 cells assessed as accumulation at G2/M phase after 24 hrs by propidium iodide-staining based flow cytometry. Format: functional.
Another test concerns the target T1, Aurora kinase A (Homo sapiens, UniProt O14965).
T1 sequence (O14965 whole entry): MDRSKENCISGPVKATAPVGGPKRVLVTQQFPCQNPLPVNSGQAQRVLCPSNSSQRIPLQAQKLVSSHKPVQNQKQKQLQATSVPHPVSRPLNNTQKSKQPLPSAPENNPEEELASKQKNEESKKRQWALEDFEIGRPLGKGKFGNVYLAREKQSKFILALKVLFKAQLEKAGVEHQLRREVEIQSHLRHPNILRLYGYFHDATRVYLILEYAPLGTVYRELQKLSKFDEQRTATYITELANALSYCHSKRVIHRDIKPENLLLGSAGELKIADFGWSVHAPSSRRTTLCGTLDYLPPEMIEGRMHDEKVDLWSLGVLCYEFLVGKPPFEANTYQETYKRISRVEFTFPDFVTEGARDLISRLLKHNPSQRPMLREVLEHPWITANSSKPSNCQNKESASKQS
Put plainly: Inhibition of GST-tagged AURORA A (unknown origin) expressed in baculovirus infected Sf9 cells using MBP as substrate.

In test [3] the target is T2, Aurora kinase B (Homo sapiens, UniProt Q96GD4). Put plainly: Inhibition of AURORA B in human HCT116 cells assessed as reduction in histone H3 phosphorylation at S10 residues after 24 hrs by Western blot analysis. The format is cell-based. (In western blotting, separated proteins are transferred to a membrane and probed.)
In test [4] the target is Cyclin-dependent kinase 1 (Homo sapiens) (UniProt P06493). Nature of the test: Inhibition of CDK1 (unknown origin) at 10 uM.
For test [5], the species on record is Homo sapiens. Put plainly: Selectivity index, ratio of IC50 for inhibition of His-tagged CDK1/cyclin B1 (unknown origin) expressed in Baculovirus infected Sf9 cells to IC50 for inhibition of GST-tagged AURORA B (unknown origin) expressed in baculovirus infected Sf9 cells.
Test [6] is filed under the species Homo sapiens. Put plainly: Selectivity index, ratio of IC50 for inhibition of His-tagged CDK1/cyclin B1 (unknown origin) expressed in Baculovirus infected Sf9 cells to IC50 for inhibition of GST-tagged AURORA A (unknown origin) expressed in baculovirus infected Sf9 cells.
Another test concerns the target CDK2/Cyclin A2 (Homo sapiens, UniProt P24941).
Test [7] deals with Cyclin-dependent kinase 2 (Homo sapiens, UniProt P24941).
In test [8] the target is Cyclin-dependent kinase 1/cyclin B1 (Homo sapiens, UniProt P06493). Nature of the test: biochemical.
In test [9] the target is Cyclin-dependent kinase 2/cyclin E1 (Homo sapiens, UniProt P24941). Put plainly: biochemical.
The target of test [10] is Cyclin-dependent kinase 4/cyclin D1 (Homo sapiens, UniProt P11802). Nature of the test: biochemical.
Test [11] has as its target Cyclin-dependent kinase 5/CDK5 activator 1 (Homo sapiens, UniProt Q00535). Nature of the test: biochemical.
In a further test the target is CDK7/Cyclin H/MNAT1 (Homo sapiens, UniProt P50613). Put plainly: biochemical.
Another test concerns the target CDK9/cyclin T1 (Homo sapiens, UniProt P50750). Nature of the test: biochemical.
The target in test [12] is T2, Aurora kinase B. Put plainly: biochemical.
In test [13] the test system is HCT-116. Nature of the test: Induction of cell cycle arrest in human HCT116 cells assessed as accumulation at G1 phase at 0.03 to 0.8 uM after 24 hrs by propidium iodide-staining based flow cytometry. Format: functional.
Test [14] deals with HCT-116. Nature of the test: Induction of cell cycle arrest in human HCT116 cells assessed as accumulation at G2/M phase at 0.03 to 0.8 uM after 24 hrs by propidium iodide-staining based flow cytometry. Format: functional.
The subject of test [15] is HCT-116. Put plainly: Induction of cell cycle arrest in human HCT116 cells assessed as accumulation at S phase at 2.6 to 29.6 uM after 24 hrs by propidium iodide-staining based flow cytometry. Format: functional.
The target in test [16] is T3, N-lysine methyltransferase KMT5A (Homo sapiens, UniProt Q9NQR1).
T3 sequence (Q9NQR1 whole entry): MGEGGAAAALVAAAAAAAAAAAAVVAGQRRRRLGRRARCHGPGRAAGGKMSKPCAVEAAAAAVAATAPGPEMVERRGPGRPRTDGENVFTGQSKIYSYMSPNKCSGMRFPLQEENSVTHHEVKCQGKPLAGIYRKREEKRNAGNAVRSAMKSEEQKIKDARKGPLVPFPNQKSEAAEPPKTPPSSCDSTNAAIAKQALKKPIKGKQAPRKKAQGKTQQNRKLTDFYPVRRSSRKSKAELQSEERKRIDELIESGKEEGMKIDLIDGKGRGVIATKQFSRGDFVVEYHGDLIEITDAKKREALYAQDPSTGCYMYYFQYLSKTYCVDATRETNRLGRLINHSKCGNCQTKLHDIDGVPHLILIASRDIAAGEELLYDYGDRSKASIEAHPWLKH
Nature of the test: Inhibition of SETD8 (unknown origin).

The subject of test [17] is HCT-116. Nature of the test: Induction of cell cycle arrest in human HCT116 cells assessed as accumulation at G2/M phase at 5.9 to […] after 24 hrs by propidium iodide-staining based flow cytometry. Format: functional.

Cyclin-dependent kinase 1/cyclin B1, sequence (P06493 whole entry): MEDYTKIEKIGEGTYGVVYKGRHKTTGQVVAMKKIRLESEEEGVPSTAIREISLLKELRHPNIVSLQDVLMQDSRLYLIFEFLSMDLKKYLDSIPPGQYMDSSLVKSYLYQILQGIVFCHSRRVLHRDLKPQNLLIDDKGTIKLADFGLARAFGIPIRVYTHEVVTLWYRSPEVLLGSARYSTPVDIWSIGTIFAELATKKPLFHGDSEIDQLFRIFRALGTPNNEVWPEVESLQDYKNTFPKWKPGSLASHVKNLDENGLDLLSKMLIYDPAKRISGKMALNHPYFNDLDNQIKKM
Cyclin-dependent kinase 1/cyclin B1, sequence (P14635 whole entry, further chain): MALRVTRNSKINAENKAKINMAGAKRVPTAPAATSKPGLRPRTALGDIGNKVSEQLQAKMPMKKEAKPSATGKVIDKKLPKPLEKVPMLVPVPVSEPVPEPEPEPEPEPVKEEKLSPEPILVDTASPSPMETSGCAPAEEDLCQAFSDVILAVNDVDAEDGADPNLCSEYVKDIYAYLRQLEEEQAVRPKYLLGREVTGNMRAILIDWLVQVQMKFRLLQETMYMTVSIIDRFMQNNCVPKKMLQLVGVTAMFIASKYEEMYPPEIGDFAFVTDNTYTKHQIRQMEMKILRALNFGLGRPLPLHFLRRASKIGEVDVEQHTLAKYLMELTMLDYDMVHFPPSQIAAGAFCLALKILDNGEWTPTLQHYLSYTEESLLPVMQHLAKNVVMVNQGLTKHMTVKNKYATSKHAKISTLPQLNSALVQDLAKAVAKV
Cyclin-dependent kinase 4/cyclin D1, sequence (P11802 whole entry): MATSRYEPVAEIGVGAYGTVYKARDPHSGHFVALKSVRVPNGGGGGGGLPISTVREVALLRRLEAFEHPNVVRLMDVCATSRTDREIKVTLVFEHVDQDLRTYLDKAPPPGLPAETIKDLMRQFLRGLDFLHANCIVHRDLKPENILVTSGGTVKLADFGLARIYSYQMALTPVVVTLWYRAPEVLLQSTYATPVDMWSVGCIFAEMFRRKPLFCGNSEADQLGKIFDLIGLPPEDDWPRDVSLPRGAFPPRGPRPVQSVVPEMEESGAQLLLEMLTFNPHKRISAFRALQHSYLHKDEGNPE
Cyclin-dependent kinase 4/cyclin D1, sequence (P24385 whole entry, further chain): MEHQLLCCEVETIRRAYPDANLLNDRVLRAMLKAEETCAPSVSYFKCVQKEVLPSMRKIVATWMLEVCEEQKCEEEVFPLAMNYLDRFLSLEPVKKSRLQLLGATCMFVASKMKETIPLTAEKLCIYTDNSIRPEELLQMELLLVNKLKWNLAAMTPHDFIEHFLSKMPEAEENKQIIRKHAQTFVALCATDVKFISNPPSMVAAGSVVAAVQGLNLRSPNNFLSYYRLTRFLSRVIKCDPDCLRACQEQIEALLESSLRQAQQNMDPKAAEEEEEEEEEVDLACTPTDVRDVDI
CDK7/Cyclin H/MNAT1, sequence (P51946 whole entry): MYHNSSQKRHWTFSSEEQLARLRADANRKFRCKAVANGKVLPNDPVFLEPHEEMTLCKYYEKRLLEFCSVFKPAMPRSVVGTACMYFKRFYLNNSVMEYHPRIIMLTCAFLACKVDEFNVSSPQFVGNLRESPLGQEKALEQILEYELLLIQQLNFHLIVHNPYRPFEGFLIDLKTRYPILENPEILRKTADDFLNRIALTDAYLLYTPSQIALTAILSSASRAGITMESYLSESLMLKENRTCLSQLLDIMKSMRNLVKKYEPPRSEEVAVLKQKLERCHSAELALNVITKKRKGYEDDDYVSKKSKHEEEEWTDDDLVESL
CDK7/Cyclin H/MNAT1, sequence (P50613 whole entry): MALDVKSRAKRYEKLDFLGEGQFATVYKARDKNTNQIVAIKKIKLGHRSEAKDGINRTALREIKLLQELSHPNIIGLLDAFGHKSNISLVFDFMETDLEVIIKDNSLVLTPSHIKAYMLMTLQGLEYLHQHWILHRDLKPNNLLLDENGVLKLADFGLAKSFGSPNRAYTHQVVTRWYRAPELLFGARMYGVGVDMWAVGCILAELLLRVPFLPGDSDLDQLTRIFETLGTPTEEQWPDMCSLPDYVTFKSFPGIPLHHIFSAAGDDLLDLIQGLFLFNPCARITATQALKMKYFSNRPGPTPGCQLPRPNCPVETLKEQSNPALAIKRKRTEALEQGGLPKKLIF
CDK7/Cyclin H/MNAT1, sequence (P51948 whole entry, further chain): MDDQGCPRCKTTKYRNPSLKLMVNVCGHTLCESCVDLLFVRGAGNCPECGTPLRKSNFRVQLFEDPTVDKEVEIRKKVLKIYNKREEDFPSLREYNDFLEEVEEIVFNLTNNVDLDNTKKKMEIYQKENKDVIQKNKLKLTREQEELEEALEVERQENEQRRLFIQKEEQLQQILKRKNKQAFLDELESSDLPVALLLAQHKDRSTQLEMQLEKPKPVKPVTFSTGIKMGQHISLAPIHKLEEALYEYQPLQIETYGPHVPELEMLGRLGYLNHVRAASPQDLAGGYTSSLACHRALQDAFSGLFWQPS
CDK9/cyclin T1, sequence (O60563 whole entry): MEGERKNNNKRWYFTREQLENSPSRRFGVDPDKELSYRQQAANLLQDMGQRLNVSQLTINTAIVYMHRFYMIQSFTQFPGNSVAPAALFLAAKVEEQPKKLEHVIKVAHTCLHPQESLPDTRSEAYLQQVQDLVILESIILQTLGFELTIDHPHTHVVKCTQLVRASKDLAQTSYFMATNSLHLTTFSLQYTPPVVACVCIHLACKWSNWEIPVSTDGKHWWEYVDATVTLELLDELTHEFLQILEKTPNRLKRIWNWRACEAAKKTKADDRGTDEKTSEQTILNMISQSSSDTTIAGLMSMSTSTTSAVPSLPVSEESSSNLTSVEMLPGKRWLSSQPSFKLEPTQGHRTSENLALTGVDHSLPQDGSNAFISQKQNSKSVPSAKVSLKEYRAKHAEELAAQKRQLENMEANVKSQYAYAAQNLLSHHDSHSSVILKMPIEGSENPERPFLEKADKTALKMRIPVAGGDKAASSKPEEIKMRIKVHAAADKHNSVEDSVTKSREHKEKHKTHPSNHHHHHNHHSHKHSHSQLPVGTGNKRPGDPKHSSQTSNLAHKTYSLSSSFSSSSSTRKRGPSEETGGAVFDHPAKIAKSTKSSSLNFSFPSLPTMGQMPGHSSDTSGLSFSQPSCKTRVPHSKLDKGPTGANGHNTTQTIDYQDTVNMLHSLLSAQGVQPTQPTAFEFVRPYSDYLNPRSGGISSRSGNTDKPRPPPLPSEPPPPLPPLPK
CDK9/cyclin T1, sequence (P50750 whole entry): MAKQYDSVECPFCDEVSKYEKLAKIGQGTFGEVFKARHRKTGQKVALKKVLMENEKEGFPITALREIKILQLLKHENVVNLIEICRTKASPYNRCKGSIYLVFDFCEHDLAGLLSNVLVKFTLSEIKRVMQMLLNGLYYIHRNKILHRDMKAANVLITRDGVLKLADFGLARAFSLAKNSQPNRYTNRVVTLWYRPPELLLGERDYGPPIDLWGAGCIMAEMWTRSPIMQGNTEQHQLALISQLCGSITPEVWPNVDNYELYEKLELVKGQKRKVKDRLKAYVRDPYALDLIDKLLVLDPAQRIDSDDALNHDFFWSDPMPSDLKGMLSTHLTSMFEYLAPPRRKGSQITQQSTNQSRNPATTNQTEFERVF
Cyclin-dependent kinase 5/CDK5 activator 1, sequence (Q00535 whole entry): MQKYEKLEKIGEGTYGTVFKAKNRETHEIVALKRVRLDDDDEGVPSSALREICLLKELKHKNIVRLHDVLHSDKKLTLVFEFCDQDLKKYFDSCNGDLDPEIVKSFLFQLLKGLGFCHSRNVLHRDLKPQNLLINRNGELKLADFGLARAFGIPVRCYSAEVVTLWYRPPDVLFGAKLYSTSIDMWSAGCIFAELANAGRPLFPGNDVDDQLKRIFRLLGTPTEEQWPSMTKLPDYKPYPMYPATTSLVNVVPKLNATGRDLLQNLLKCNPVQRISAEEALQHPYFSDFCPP
Cyclin-dependent kinase 5/CDK5 activator 1, sequence (Q15078 whole entry, further chain): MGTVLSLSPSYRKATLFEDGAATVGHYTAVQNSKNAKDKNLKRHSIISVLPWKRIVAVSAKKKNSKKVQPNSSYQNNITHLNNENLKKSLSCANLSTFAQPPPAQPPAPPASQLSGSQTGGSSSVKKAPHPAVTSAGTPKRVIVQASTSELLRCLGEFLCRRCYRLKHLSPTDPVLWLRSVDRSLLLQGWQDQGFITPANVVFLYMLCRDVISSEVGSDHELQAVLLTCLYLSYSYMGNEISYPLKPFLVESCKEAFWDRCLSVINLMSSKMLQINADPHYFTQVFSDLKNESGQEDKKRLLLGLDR
T2 sequence (Q96GD4 whole entry): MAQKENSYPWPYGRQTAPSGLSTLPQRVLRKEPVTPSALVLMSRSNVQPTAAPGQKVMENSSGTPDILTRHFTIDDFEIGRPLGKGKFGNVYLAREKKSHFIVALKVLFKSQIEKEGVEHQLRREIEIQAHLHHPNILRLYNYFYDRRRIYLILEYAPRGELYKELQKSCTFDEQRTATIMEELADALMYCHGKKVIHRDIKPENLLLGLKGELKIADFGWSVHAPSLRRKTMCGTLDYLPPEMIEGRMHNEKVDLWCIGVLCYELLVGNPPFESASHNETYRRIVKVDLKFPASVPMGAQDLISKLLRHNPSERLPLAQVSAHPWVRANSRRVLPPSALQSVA
Cyclin-dependent kinase 1 (Homo sapiens), sequence (P06493 whole entry, looked up): as the sequence (P06493 whole entry) above

In the case of `CCN(CC)C(=O)c1ccc(Nc2nc(OCC3CCCCC3)c3nc[nH]c3n2)cc1`, the outcome in the test with HCT-116 [1] was Active. Also, in the test on HCT-116 [2], the Activity entry is “>=60%”. The IC50 stood at 67 nM at Aurora kinase A; 407000 nM at CDK2/Cyclin A2; 400 nM in test [7]; 5800 nM in test [8]; 1100 nM in [9]; 940 nM in test [10]. The IC50 in [11] came to 8800 nM; against CDK7/Cyclin H/MNAT1 it was 2300 nM; against CDK9/cyclin T1, 5100 nM; against Aurora kinase B [12] it was 35 nM. The inhibition result on Aurora kinase B [3] was “Dose-dependent effect”; in test [4], 44%. For the same molecule, the Ratio IC50 in the test listed under Homo sapiens [5] and in the test filed under Homo sapiens [6] was 6 to 10 throughout.
For the molecule `CCN1CCN(Cc2ccc(Nc3ncc(F)c(-c4cc(F)c5nc(C)n(C(C)C)c5c4)n3)nc2)CC1` [ABEMACICLIB], the result in the test on HCT-116 [13] was Active. For the same molecule, the Activity entry in the test with HCT-116 [14] is given as “<=30%”.
`Cc1ccc(NC2=CC(=O)c3sc(C)nc3C2=O)cc1`: in the test with HCT-116 [15], the Activity was determined as 15%. The concentration for half-maximal inhibition (IC50) in test [16] is 500 nM; against CDK2/Cyclin A2, more than 20000 nM; in [8] it was more than 20000 nM; in test [9], more than 20000 nM; in test [10] it was 9500 nM; in test [11] it was more than 20000 nM. For the same molecule, the IC50 on CDK7/Cyclin H/MNAT1 and against CDK9/cyclin T1 was more than 20000 nM throughout.
Consider `CC[C@H](CO)Nc1nc(Nc2cccc(-c3ccccn3)c2)c2ncn(C(C)C)c2n1`, for which the Activity result in the test with HCT-116 [17] is recorded as “<=30%”. Besides, the half-inhibitory concentration (IC50) against CDK2/Cyclin A2 was 290 nM; in test [8] it was 3700 nM; in [9] it was 93 nM; in [10] it was more than 20000 nM; in test [11] it was 215 nM; on CDK7/Cyclin H/MNAT1, 822 nM. The molecule further had an IC50 at CDK9/cyclin T1 of 8000 nM.
